13 compounds from US9901097B2, “Agricultural and horticultural fungicidal composition” (Nippon Soda Co., Ltd., priority 2011, dated 2018) can be followed below.

Like-named read-outs stand apart in the source and are kept apart here.

In test [1] the test system is Botrytis cinerea. As to the kind of experiment: Sterilization test (growth inhibition of Botrytis cinerea in potato dextrose medium, 96-well microplate, turbidity 405 nm). Type of test: cell-based. The conditions noted are these: for inhibition at 0.1 ppm: drug I alone 0.1 ppm; for inhibition at 10 ppm: drug II alone 10 ppm; for Growth inhibition rate / inhibition at 0.02 ppm: drug II alone 0.02 ppm. As to the method: The solutions thus obtained were mixed to prepare fungicidal compositions.
Conidia of Botrytis cinerea were added to and dispersed in a potato dextrose culture medium. A fungicidal composition was added thereto and mixed. This was dispensed in a 96-well microplate and cultured at 20° C. for 3 days in a dark setting. Then, the turbidity was measured at a wavelength of 405 nm in a microplate reader. From comparison with the measured value of turbidity in the case of non-treatment (without the addition of the fungicidal composition), the growth inhibition rate of Botrytis cinerea (%) was calculated. The test was carried out in duplicate. Further, the expected value of the growth inhibition was calculated based on Colby's equation.
In addition, the Colby's equation is E=M+N−MN/100. Here, E is the expected value of a growth inhibition rate (%), M is the growth inhibition rate (%) calculated from the measurement with the use of the drug I alone, and N is the growth inhibition rate (%) calculated from the measurement with the use of the drug II alone. Additionally, in Tables, the expected values with the use of the drug alone were not shown, because they were the same as the values calculated from the measurement.
At the concentrations shown in Tables 6 to 8, the drug I and the drug II were dissolved separately in dimethyl sulfoxide. The obtained solution was mixed to prepare a fungicidal composition.
Using the same methods as in Example 1 and Comparative Example 1, the sterilization test was carried out. Additionally, in Tables, the expected values with the use of the drug alone were not shown, because they were the same as the values calculated from the measurement.

Test [2] has as its system cucumber powdery mildew disease pathogens (Sphaerotheca fuliginea). In words: Control test for cucumber powdery mildew disease (sprayed cucumber seedlings). The class given is in vivo. The note with it: held 7 days after inoculation. As to the method:
The drug I and the drug II were dissolved in an organic solvent and a surfactant, and the prepared mixed emulsifiable concentrate was diluted with water to a predetermined concentration, and sprayed to cucumber seedlings that had been cultivated in unglazed pots (cultivar “Sagamihanjiro”, cotyledon stage). Additionally, in Tables, the symbol A indicating the drug I represents a nitrogen-containing heterocyclic compound represented by the formula (A), the symbol B indicating the drug I represents a nitrogen-containing heterocyclic compound represented by the formula (B), and the symbol C indicating the drug I represents a nitrogen-containing heterocyclic compound represented by the formula (C). Further, in Tables, the number indicating the drug II represents each of the compounds described in the numbers described above. Additionally, “-” in Tables represents that the drug was not used.
After air-drying at room temperature, the conidia of cucumber powdery mildew disease pathogens (Sphaerotheca fuliginea) was inoculated by shaking off and held in a warm room for 7 days. By investigation on the state of lesion appearance in leaves with comparison with a non-treatment case, the controlling effect was determined. The test was carried out in duplicate. In addition, the expected value of the controlling effect was calculated based on Colby's equation.
(§1) At the same time, in Comparative Example, in the case of using the drug I only and the case of using the drug II only, the test was carried out by the same method.
(§2) Additionally, the Colby's equation is E=M+N−MN/100. Here, E is the expected value of the controlling effect (%), M is the controlling effect (%) calculated from the measurement with the use of the drug I alone, and N is the controlling effect (%) calculated from the measurement with the use of the drug II alone. Additionally, in Tables, the expected values with the use of the drug alone were the same as the values calculated from the measurement, and were thus not shown.

The subject of test [3] is cucumber gray mold disease pathogens (Botrytis cinerea). As to the kind of experiment: Control test for cucumber gray mold disease (sprayed cucumber seedlings). The note with it: for pest or weed control at 10 ppm: drug I alone 10 ppm; for pest or weed control at 25 ppm: drug II alone 25 ppm; for pest or weed control at 100 ppm: drug II alone 100 ppm; for pest or weed control at 400 ppm: drug II alone 400 ppm. Type of test: in vivo. On the procedure:
The drug I and the drug II were dissolved in an organic solvent and a surfactant, and the prepared mixed emulsifiable concentrate was diluted with water to a predetermined concentration, and sprayed to cucumber seedlings that had been cultivated in unglazed pots (cultivar “Sagamihanjiro” cotyledon stage). Additionally, in Tables, the symbol A indicating the drug I represents a nitrogen-containing heterocyclic compound represented by the formula (A), the symbol B indicating the drug I represents a nitrogen-containing heterocyclic compound represented by the formula (B), and the symbol C indicating the drug I represents a nitrogen-containing heterocyclic compound represented by the formula (C). Further, the number indicating the drug II represents each of the compounds described in the numbers described above. Additionally, “-” in Tables represents that the drug was not used.
After air-drying at room temperature, a suspension of the conidia of cucumber gray mold disease pathogens (Botrytis cinerea) was inoculated by dropwise addition and held in a dark room at 20° C. with a high humidity for 3, 4, or 5 days. By investigation on the state of lesion appearance in leaves with comparison with a non-treatment case, the controlling effect was determined. The test was carried out in duplicate. In addition, the expected value of the controlling effect was calculated based on Colby's equation.
as §1, §2

Setting [4] is: Botrytis cinerea, Example 1 (Tables 1-5), read-out: Growth inhibition rate.
Where [5] appears, read: Botrytis cinerea, Example 2 (Tables 6-8), read-out: Growth inhibition rate.
[6] abbreviates: Botrytis cinerea, 72 h, read-out: Control effect (%), 3 days after inoculation.
The mark [7] stands for this setting: Botrytis cinerea, 96 h, read-out: Control effect (%), 4 days after inoculation.
[8] abbreviates: Botrytis cinerea, 96 h, read-out: Control effect, Table 9, 4 days after inoculation.
The mark [9] stands for this setting: Botrytis cinerea, 96 h, read-out: Control effect, Table 11, 4 days after inoculation.
The mark [10] stands for this setting: Botrytis cinerea, 120 h, read-out: Control effect (%), 5 days after inoculation.
The mark [11] stands for this setting: Botrytis cinerea, 120 h, read-out: Control effect, Table 10, 5 days after inoculation.
[12] abbreviates: Botrytis cinerea, 120 h, Table 10, 5 days after inoculation, read-out: Control effect.
Where [13] appears, read: Table 10, 5 days after inoculation, drug II alone 1.6 ppm.
Setting [14] is: Botrytis cinerea, 96 h, Table 9, 4 days after inoculation, read-out: Control effect.

For orientation: inhibition means the share of the control response that was lost under treatment. In the case of `Cc1nc2c(F)cccc2cc1Oc1cccc(F)c1C(C)(C)O` [B], the results for the inhibition at 0.1 ppm in test [1] (setting [4]) and in test [1] (setting [5]) were 19% and 18%, respectively. For the same compound, in test [2] (drug I alone 10 ppm), the “Control effect (%)” value turned out to be 60%. In addition, the pest or weed control at 10 ppm is 54% in test [3] (setting [6]); 37% in test [3] (setting [7]); 50% in test [3] (setting [8]); 78% in test [3] (setting [9]); 64% in test [3] (setting [10]); 44% in test [3] (setting [11]).

As to `CCCCc1c(C)nc(NCC)nc1OS(=O)(=O)N(C)C` [Drug 60, Bupirimate], the entries for the “Control effect (%)” value in test [2] (drug II alone 6.3 ppm) and in test [2] (drug II alone 25 ppm) were 10% and 50%, respectively. Further, the pest or weed control at 25 ppm in test [3] (setting [6]) came out at 0%.

Consider `Cc1cc(C(F)(F)F)nn1CC(=O)N1CCC(c2nc(C3=NOC(c4c(F)cccc4F)C3)cs2)CC1` (centres unmarked) [Drug 61], for which, in test [2] (drug II alone 6.3 ppm), the “Control effect (%)” value is 0%. For the same compound, in test [3] (Botrytis cinerea, 72 h, 3 days after inoculation, drug II alone 6.3 ppm, read-out: Control effect (%)), the pest or weed control at 6.3 ppm was found to be 0%. For the same compound, the pest or weed control at 100 ppm in test [3] (Botrytis cinerea, 72 h, 3 days after inoculation, read-out: Control effect (%)) was 0%.

On to `Cc1nc2c(F)c(F)ccc2cc1Oc1cccc(F)c1C(C)(C)O` [C], for which the inhibition at 0.1 ppm in test [1] (setting [4]) is 19%; in test [1] (setting [5]), 21%. Besides, the “Control effect (%)” value in test [2] (drug I alone 10 ppm) was 30%. The pest or weed control at 10 ppm was found to be 54% in test [3] (setting [6]); 19% in test [3] (setting [7]); 51% in test [3] (setting [8]); 76% in test [3] (setting [9]); 67% in test [3] (setting [10]); 47% in test [3] (setting [11]).

As for `O=C(Cc1ccccc1)N/C(=N\OCC1CC1)c1c(C(F)(F)F)ccc(F)c1F` [Drug 1, Cyflufenamid], the inhibition at 10 ppm in test [1] (setting [4]) is 9%. Besides, in test [3] (setting [12]), the pest or weed control at 25 ppm was 0%.

In turn, `CC(=O)O.CC(=O)O.CC(=O)O.NC(N)=NCCCCCCCCNCCCCCCCCN=C(N)N` [Drug 4, Iminoctadine acetate] yielded a Growth inhibition rate in test [1] (Example 1 (Tables 1-5)) of 27%. The Control effect in test [3] (setting [13]) turned out to be 0%; in test [3] (Table 10, 5 days after inoculation, drug II alone 6.3 ppm), 41%.

Take `Cn1nnnc1/C(=N\OCc1cccc(NC(=O)OC(C)(C)C)n1)c1ccccc1` [Drug 38]: in test [1] (setting [4]), the inhibition at 10 ppm came to 9%. Besides, the pest or weed control at 100 ppm in test [3] (setting [14]) came out at 0%.

As to `C[C@@H]1[C@@H](c2ccc(Cl)cc2)SC(=O)N1C(=O)NC1CCCCC1` [Drug 43, Hexythiazox], the inhibition at 10 ppm in test [1] (setting [5]) is 0%. Further, the pest or weed control at 400 ppm in test [3] (setting [9]) is 2%. For the same compound, in test [3] (setting [10]), the pest or weed control at 100 ppm is 0% and the pest or weed control at 400 ppm worked out at 0%.

`COC(=O)NCc1cc(/C(C)=N/OCc2cccc(C)n2)ccc1Cl` [Drug 29, Pyribencarb]: in test [1] (setting [4]), the inhibition at 0.02 ppm amounted to 22%. Moreover, the pest or weed control at 0.4 ppm in test [3] (Botrytis cinerea, 96 h, 4 days after inoculation, drug II alone 0.4 ppm, read-out: Control effect (%)) is 0%. For the same compound, the pest or weed control at 1.6 ppm in test [3] (Botrytis cinerea, 96 h, 4 days after inoculation, drug II alone 1.6 ppm, read-out: Control effect (%)) worked out at 0%. The pest or weed control at 6.3 ppm in test [3] (Botrytis cinerea, 96 h, 4 days after inoculation, drug II alone 6.3 ppm, read-out: Control effect (%)) is 37%.

With `CC1(C)CN=C(c2cnc3ccccc3c2)c2cccc(F)c2O1` [A], the figures for the inhibition at 0.1 ppm in test [1] (setting [4]) and in test [1] (setting [5]) were 19% and 20%, respectively. In test [2] (drug I alone 10 ppm), the “Control effect (%)” value is recorded as 40%. The pest or weed control at 10 ppm turned out to be 52% in test [3] (setting [6]), 37% in test [3] (setting [7]), 60% in test [3] (setting [10]) and 43% in test [3] (setting [11]).

As for `CCCOC/C(=N\c1ccc(Cl)cc1C(F)(F)F)n1ccnc1` [Drug 2, Triflumizole], in test [1] (Botrytis cinerea, Example 1 (Tables 1-5), drug II alone 2 ppm, read-out: Growth inhibition rate), the inhibition at 2 ppm was 59%. Moreover, the pest or weed control at 100 ppm stood at 1% in test [3] (Botrytis cinerea, 96 h, 4 days after inoculation, read-out: Control effect (%)) and 33% in test [3] (setting [12]). Also, the pest or weed control at 400 ppm in test [3] (setting [14]) worked out at 64%.

`CCCCCCCCCCCCc1ccc(S(=O)(=O)O)cc1.CCCCCCCCCCCCc1ccc(S(=O)(=O)O)cc1.CCCCCCCCCCCCc1ccc(S(=O)(=O)O)cc1.NC(N)=NCCCCCCCCNCCCCCCCCN=C(N)N` [Drug 5, Iminoctadine albesilate] showed a Growth inhibition rate in test [1] (Example 1 (Tables 1-5)) of 6%. Moreover, the Control effect is listed as 0% in test [3] (Table 10, 5 days after inoculation, drug II alone 0.4 ppm) and 0% in test [3] (setting [13]).

For `COC(=O)NC(=S)Nc1ccccc1NC(=S)NC(=O)OC` [Drug 3, Thiophanate-methyl], the inhibition at 0.02 ppm in test [1] (setting [4]) came to 0%. Moreover, the pest or weed control at 1.6 ppm in test [3] (Botrytis cinerea, 96 h, Table 9, 4 days after inoculation, drug II alone 1.6 ppm, read-out: Control effect) stood at 3%. In addition, the pest or weed control at 6.3 ppm in test [3] (Botrytis cinerea, 120 h, Table 10, 5 days after inoculation, drug II alone 6.3 ppm, read-out: Control effect) came out at 89%.
